Assay results as given in ChEMBL document CHEMBL3102853, “Carbonic anhydrase inhibitors. Synthesis, and molecular structure of novel series N-substituted N'-(2-arylmethylthio-4-chloro-5-methylbenzenesulfonyl)guanidines and their inhibition of human cytosolic isozymes I and II and the transmembrane tumor-associated isozymes IX and XII” (Eur J Med Chem, 2014).
The source made the active and inactive calls. The calls are words filed in the database; no cut-off is given here.

Assays:
Carbonic anhydrase 9 = Carbonic anhydrase 9 (Homo sapiens, UniProt Q16790)
RPMI-8226 = assay: Cytotoxicity against human RPMI8226 cells at 10 uM; assay type: functional; conditions: read-out: GI
SW-620 = assay: Cytotoxicity against human SW620 cells at 10 uM; assay type: functional; conditions: read-out: GI
HL-60(TB) = assay: Cytotoxicity against human HL-60(TB) cells at 10 uM; assay type: functional; conditions: read-out: GI
PC-3 = assay: Cytotoxicity against human PC3 cells at 10 uM; assay type: functional; conditions: read-out: GI
MDA-MB-468 = assay: Cytotoxicity against human MDA-MB-468 cells at 10 uM; assay type: functional; conditions: read-out: GI
OVCAR-3 = assay: Cytotoxicity against human OVCAR3 cells at 10 uM; assay type: functional; conditions: read-out: GI
HOP-92 = assay: Cytotoxicity against human HOP92 cells at 10 uM; assay type: functional; conditions: read-out: GI
MCF7 = assay: Cytotoxicity against human MCF7 cells at 10 uM; assay type: functional; conditions: read-out: GI
DU-145 = assay: Cytotoxicity against human DU145 cells at 10 uM; assay type: functional; conditions: read-out: GI
NCI-H460 = assay: Cytotoxicity against human NCI-H460 cells at 10 uM; assay type: functional; conditions: read-out: GI
NCI/ADR-RES = assay: Cytotoxicity against human NCI-ADR-RES cells at 10 uM; assay type: functional
SF-268 = assay: Cytotoxicity against human SF268 cells at 10 uM; assay type: functional; conditions: read-out: GI
LOX IMVI = assay: Cytotoxicity against human LOXIMVI cells at 10 uM; assay type: functional; conditions: read-out: GI
T47D = assay: Cytotoxicity against human T47D cells at 10 uM; assay type: functional; conditions: read-out: GI
A549 = assay: Cytotoxicity against human A549 cells at 10 uM; assay type: functional; conditions: read-out: GI
SNB-75 = assay: Cytotoxicity against human SNB75 cells at 10 uM; assay type: functional; conditions: read-out: GI
MOLT-4 = assay: Cytotoxicity against human MOLT4 cells at 10 uM; assay type: functional; conditions: read-out: GI
SK-MEL-2 = assay: Cytotoxicity against human SK-MEL-2 cells at 10 uM; assay type: functional; conditions: read-out: GI
[1] = Cytotoxicity against human Hs 578T cells at 10 uM; assay type: functional; conditions: read-out: GI
UACC-62 = assay: Cytotoxicity against human UACC62 cells at 10 uM; assay type: functional; conditions: read-out: GI
SR = assay: Cytotoxicity against human SR cells at 10 uM; assay type: functional; conditions: read-out: GI
HT-29 = assay: Cytotoxicity against human HT-29 cells at 10 uM; assay type: functional; conditions: read-out: GI
KM12 = assay: Cytotoxicity against human KM12 cells at 10 uM; assay type: functional; conditions: read-out: GI
K562 = assay: Cytotoxicity against human K562 cells at 10 uM; assay type: functional; conditions: read-out: GI
A498 = assay: Cytotoxicity against human A498 cells at 10 uM; assay type: functional; conditions: read-out: GI

## Cc1cc(S(=O)(=O)NC(=N)NNc2ccc(S(N)(=O)=O)cc2)c(SCc2cccc(C(F)(F)F)c2)cc1Cl
Carbonic anhydrase 9
  Ki: 0.021 µM

## Cc1cc(S(=O)(=O)NC(=N)NCc2ccc(S(N)(=O)=O)cc2)c(SCc2cc3c(cc2Cl)OCO3)cc1Cl
RPMI-8226
  inhibition of growth at 10 µM: 57%
SW-620
  inhibition of growth at 10 µM: 8%
HL-60(TB)
  inhibition of growth at 10 µM: 58%
PC-3
  inhibition of growth at 10 µM: 54%
MDA-MB-468
  inhibition of growth at 10 µM: 62%
OVCAR-3
  inhibition of growth at 10 µM: 41%
HOP-92
  inhibition of growth at 10 µM: 57%
MCF7
  inhibition of growth at 10 µM: 60%
DU-145
  inhibition of growth at 10 µM: 2%
NCI-H460
  inhibition of growth at 10 µM: 20%
NCI/ADR-RES
  growth inhibition (GI): inactive
SF-268
  inhibition of growth at 10 µM: 28%
LOX IMVI
  inhibition of growth at 10 µM: 28%
T47D
  inhibition of growth at 10 µM: 48%
A549
  inhibition of growth at 10 µM: 30%
SNB-75
  inhibition of growth at 10 µM: 42%
MOLT-4
  inhibition of growth at 10 µM: 50%
SK-MEL-2
  inhibition of growth at 10 µM: 38%
[1]
  inhibition of growth at 10 µM: 29%
UACC-62
  inhibition of growth at 10 µM: 56%
SR
  inhibition of growth at 10 µM: 50%
HT-29
  inhibition of growth at 10 µM: 15%
KM12
  inhibition of growth at 10 µM: 38%
K562
  inhibition of growth at 10 µM: 57%
A498
  inhibition of growth at 10 µM: 10%

## Cc1cc(S(=O)(=O)NC(=N)Nc2cccc(S(N)(=O)=O)c2)c(SCc2ccc(C(F)(F)F)cc2)cc1Cl
RPMI-8226
  inhibition of growth at 10 µM: 39%
SW-620
  inhibition of growth at 10 µM: 5%
HL-60(TB)
  inhibition of growth at 10 µM: 33%
PC-3
  inhibition of growth at 10 µM: 68%
MDA-MB-468
  inhibition of growth at 10 µM: 26%
OVCAR-3
  inhibition of growth at 10 µM: 33%
HOP-92
  inhibition of growth at 10 µM: 37%
MCF7
  inhibition of growth at 10 µM: 51%
DU-145
  inhibition of growth at 10 µM: 6%
NCI-H460
  inhibition of growth at 10 µM: 19%
NCI/ADR-RES
  growth inhibition (GI): inactive
SF-268
  inhibition of growth at 10 µM: 19%
LOX IMVI
  inhibition of growth at 10 µM: 20%
T47D
  inhibition of growth at 10 µM: 35%
A549
  inhibition of growth at 10 µM: 36%
SNB-75
  inhibition of growth at 10 µM: 53%
MOLT-4
  inhibition of growth at 10 µM: 51%
SK-MEL-2
  inhibition of growth at 10 µM: 27%
[1]
  inhibition of growth at 10 µM: 13%
UACC-62
  inhibition of growth at 10 µM: 35%
SR
  inhibition of growth at 10 µM: 54%
HT-29
  inhibition of growth at 10 µM: 20%
KM12
  inhibition of growth at 10 µM: 34%
K562
  inhibition of growth at 10 µM: 48%
A498
  inhibition of growth at 10 µM: 13%

## Cc1cc(S(=O)(=O)NC(=N)Nc2nnc(S(N)(=O)=O)s2)c(SCc2ccc(C(F)(F)F)cc2)cc1Cl
Carbonic anhydrase 9
  Ki: 0.0103 µM
